Experimental data taken from patent US6337334B1, “Pyrimidine derivatives” (Kowa Co., Ltd., priority 1994, dated 2002).
Counter-ions that a name gives are not always drawn.

Key:
ETA receptor = target: T1, ETA receptor (Sus scrofa, UniProt Q29010); test: Endothelin binding inhibition experiment, 125I-endothelin-1 binding assay, ETA receptor membrane samples from smooth muscles of porcine thoracic aorta; conditions: 125I-endothelin-1 2×10^−11 M, porcine thoracic aorta membranes, 2 hours at 25° C.
T1 construct: Porcine thoracic aorta which was separated from the fatty tissue and then was removed endothelium with gauze was minced, and then homogenized; from tissue; host or cells: porcine thoracic aorta smooth muscle membranes
T1 sequence (Q29010 21-427): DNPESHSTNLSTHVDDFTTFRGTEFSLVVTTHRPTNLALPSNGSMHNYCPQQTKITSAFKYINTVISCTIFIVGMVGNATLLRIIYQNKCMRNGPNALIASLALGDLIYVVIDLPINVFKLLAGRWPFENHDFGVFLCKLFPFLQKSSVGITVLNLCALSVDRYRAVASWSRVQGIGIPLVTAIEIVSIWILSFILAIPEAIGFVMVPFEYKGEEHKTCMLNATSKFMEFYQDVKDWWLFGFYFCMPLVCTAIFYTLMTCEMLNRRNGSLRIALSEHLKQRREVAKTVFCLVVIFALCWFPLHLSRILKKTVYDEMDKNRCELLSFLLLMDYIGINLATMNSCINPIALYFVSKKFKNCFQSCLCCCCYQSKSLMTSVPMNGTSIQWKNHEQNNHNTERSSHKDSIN
Procedure: (§1) Endothelin Binding Inhibition Experiment
Preparation of receptor membrane samples (ETA) from smooth muscles of porcine thoracic aorta:
Porcine thoracic aorta which was separated from the fatty tissue and then was removed endothelium with gauze was minced, and then homogenized in three times the volume of Tris-HCl buffer (pH 7.4) (buffer A) containing 0.25 M sucrose, 3 mM ethylenediaminetetraacetic acid, 5 μg/ml of aprotinin, 10 μg/ml of pepstatin A, 10 μg/ml of leupeptin, and 0.1 μM p-amidinophenyl-methanesulfonyl fluoride. After centrifugation for 30 minutes at 1,000×g, the supernatant was further centrifuged for 30 minutes at 100,000×g. The pellets were suspended in buffer A, and recentrifuged for 30 minutes at 100,000×g. The pellets were suspended in buffer A and the suspension was stored at −80° C.
^125I-Endothelin-1 Binding Assay
The thus-obtained membrane sample (1 μl) was incubated together with ^125I-endothelin-1 (2×10^−11 M) and various concentrations of the compounds, for 2 hours at 25° C., in 250 μl in total volume of 50 mM Tris-HCl buffer (pH 7.4) containing 0.5% bovine serum albumin. The incubated mixture was filtered by use of an HVPP filters (pore size 0.45 μm, product of Milipore). The filters were washed with cold buffer A four times, and then measured with a gamma-ray counter (Aroka Autowell Gamma System ARC-251). Preparation of receptor membrane sample (ETB) from rat brain and assay of ^125I endothelin-1: […]

ETB receptor = target: T2, ETB receptor (Rattus norvegicus, UniProt P21451); test: Endothelin binding inhibition experiment, 125I-endothelin-1 binding assay, ETB receptor membrane sample from rat brain; conditions: 125I-endothelin-1, rat brain membranes
T2 construct: Rat brain tissue was minced, and a crude receptor membrane sample was prepared; from tissue; host or cells: rat brain crude membranes
T2 sequence (P21451 27-442): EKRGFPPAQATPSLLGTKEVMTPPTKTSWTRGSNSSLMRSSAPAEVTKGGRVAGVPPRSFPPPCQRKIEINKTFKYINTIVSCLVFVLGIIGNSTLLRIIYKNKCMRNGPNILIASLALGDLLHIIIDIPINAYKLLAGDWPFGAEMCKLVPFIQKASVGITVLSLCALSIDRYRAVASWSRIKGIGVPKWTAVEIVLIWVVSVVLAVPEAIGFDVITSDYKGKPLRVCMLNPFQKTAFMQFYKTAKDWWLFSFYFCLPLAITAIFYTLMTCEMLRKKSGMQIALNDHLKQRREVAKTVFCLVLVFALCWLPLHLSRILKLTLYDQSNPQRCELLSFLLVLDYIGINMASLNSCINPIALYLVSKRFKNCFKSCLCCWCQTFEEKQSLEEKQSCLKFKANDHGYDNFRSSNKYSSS
Procedure: as §1
The thus-obtained membrane sample (1 μl) was incubated together with ^125I-endothelin-1 (2×10^−11 M) and various concentrations of the compounds, for 2 hours at 25° C., in 250 μl in total volume of 50 mM Tris-HCl buffer (pH 7.4) containing 0.5% bovine serum albumin. The incubated mixture was filtered by use of an HVPP filters (pore size 0.45 μm, product of Milipore). The filters were washed with cold buffer A four times, and then measured with a gamma-ray counter (Aroka Autowell Gamma System ARC-251). Preparation of receptor membrane sample (ETB) from rat brain and assay of ^125I endothelin-1:
Rat brain tissue was minced, and a crude receptor membrane sample was prepared in a manner similar to that used in the aforementioned case of porcine thoracic aorta. Also, ^125I-endothelin-1 assay was performed in the same manner as described above.

Molecule | melting point | IC50 (ETA receptor) | IC50 (ETB receptor)
COc1ccccc1Oc1c(NS(=O)(=O)c2ccc(C(C)(C)C)cc2)nc(-c2ncccn2)nc1OCCC(=O)Nc1ccccc1 (as salt: sodium) [Compound No. 18, N-phenyl-3-[6-(4-t-butylphenylsulfonylamino)-5-(2-methoxyphenoxy)-2-(2-pyrimidinyl)-4-pyrimidinyloxy]-propionamide] | 162 to 163 °C |  | 
COc1ccccc1CNC(=O)CCOc1nc(-c2ncccn2)nc(NS(=O)(=O)c2ccc(C(C)(C)C)cc2)c1Oc1ccccc1OC (as salt: sodium) [Compound No. 34, N-(2-methoxybenzyl)-3-[6-(4-t-butylphenylsulfonylamino)-5-(2-methoxyphenoxy)-2-(2-pyrimidinyl)-4-pyrimidinyloxy]propionamide] | 138 to 139 °C |  | 
CCCCCNC(=O)CCOc1nc(-c2ncccn2)nc(NS(=O)(=O)c2ccc(C(C)(C)C)cc2)c1Oc1ccccc1OC (as salt: sodium) [Compound No. 43, N-(n-pentyl)-3-[6-(4-t-butylphenylsulfonylamino)-5-(2-methoxyphenoxy)-2-(2-pyrimidinyl)-4-pyrimidinyloxy]-propionamide] | 142 to 144 °C |  | 
COc1ccccc1NC(=O)CCOc1nc(-c2ncccn2)nc(NS(=O)(=O)c2ccc(C(C)(C)C)cc2)c1Oc1ccccc1OC (as salt: sodium) [Compound No. 48, N-(2-methoxyphenyl)-3-[6-(4-t-butylphenylsulfonylamino)-5-(2-methoxyphenoxy)-2-(2-pyrimidinyl)-4-pyrimidinyloxy]propionamide] | 120 to 122 °C |  | 
CCNC(=O)CCOc1nc(-c2ncccn2)nc(NS(=O)(=O)c2ccc(C(C)(C)C)cc2)c1Oc1ccccc1OC (as salt: sodium) [Compound No. 49, N-ethyl-3-[6-(4-t-butylphenylsulfonylamino)-5-(2-methoxyphenoxy)-2-(2-pyrimidinyl)-4-pyrimidinyloxy]-propionamide] | 117 to 120 °C |  | 
COc1ccccc1Oc1c(NS(=O)(=O)c2ccc(C(C)(C)C)cc2)nc(-c2ncccn2)nc1OCC(=O)O [Compound No. 2, [6-(4-t-butylphenyl-sulfonylamino)-5-(2-methoxyphenoxy)-2-(2-pyrimidinyl)-4-pyrimidinyloxy]acetic acid] |  | 9.4 µM | 0.8 µM
CCOC(=O)CCOc1nc(-c2ncccn2)nc(NS(=O)(=O)c2ccc(C(C)(C)C)cc2)c1Oc1ccccc1OC [Compound No. 9, ethyl 3-[6-(4-t-butylphenylsulfonylamino)-5-(2-methoxyphenoxy)-2-(2-pyrimidinyl)-4-pyrimidinyloxy]propionate] |  | 0.72 µM | 2.9 µM
COc1ccccc1Oc1c(NS(=O)(=O)c2ccc(C(C)(C)C)cc2)nc(-c2ncccn2)nc1OCC(=O)OCc1ccccc1 [Compound No. 10, benzyl [6-(4-t-butylphenylsulfonylamino)-5-(2-methoxyphenoxy)-2-(2-pyrimidinyl)-4-pyrimidinyloxy]acetate] |  | 0.51 µM | 0.65 µM
COc1ccccc1Oc1c(NS(=O)(=O)c2ccc(C(C)(C)C)cc2)nc(-c2ncccn2)nc1OCC(=O)Oc1cccc(Cl)c1 [Compound No. 12, 3-chlorophenyl [6-(4-t-butylphenylsulfonylamino)-5-(2-methoxyphenoxy)-2-(2-pyrimidinyl)-4-pyrimidinyloxy]acetate] |  | 0.32 µM | 0.82 µM
COc1ccccc1Oc1c(NS(=O)(=O)c2ccc(C(C)(C)C)cc2)nc(-c2ncccn2)nc1OCCC(=O)NCc1ccccc1 [Compound No. 14, N-benzyl-3-[6-(4-t-butylphenylsulfonylamino)-5-(2-methoxyphenoxy)-2-(2-pyrimidinyl)-4-pyrimidinyloxy]-propionamide] |  | 0.82 µM | 0.0028 µM
COc1ccccc1Oc1c(NS(=O)(=O)c2ccc(C(C)(C)C)cc2)nc(-c2ncccn2)nc1OCC(=O)NCc1ccccc1 [Compound No. 15, N-benzyl-[6-(4-t-butylphenylsulfonylamino)-5-(2-methoxyphenoxy)-2-(2-pyrimidinyl)-4-pyrimidinyloxy]acetamide] |  | 3.2 µM | 0.016 µM
COc1ccccc1Oc1c(NS(=O)(=O)c2ccc(C(C)(C)C)cc2)nc(-c2ncccn2)nc1OCCC(=O)Nc1ccccc1 [Compound No. 18, N-phenyl-3-[6-(4-t-butylphenylsulfonylamino)-5-(2-methoxyphenoxy)-2-(2-pyrimidinyl)-4-pyrimidinyloxy]-propionamide] |  | 0.15 µM | 0.023 µM
COc1ccccc1Oc1c(NS(=O)(=O)c2ccc(C(C)(C)C)cc2)nc(-c2ncccn2)nc1OCCCC(=O)Nc1ccccc1 [Compound No. 25, N-phenyl-4-[6-(4-t-butylphenylsulfonylamino)-5-(2-methoxyphenoxy)-2-(2-pyrimidinyl)-4-pyrimidinyloxy]butyramide] |  | 1.9 µM | 0.037 µM
COc1ccccc1NC(=O)CCCOc1nc(-c2ncccn2)nc(NS(=O)(=O)c2ccc(C(C)(C)C)cc2)c1Oc1ccccc1OC [Compound No. 29, N-(2-methoxyphenyl)-4-[6-(4-t-butylphenylsulfonylamino)-5-(2-methoxyphenoxy)-2-(2-pyrimidinyl)-4-pyrimidinyloxy]-butyramide] |  | 3.1 µM | 0.03 µM
COc1ccccc1CNC(=O)CCOc1nc(-c2ncccn2)nc(NS(=O)(=O)c2ccc(C(C)(C)C)cc2)c1Oc1ccccc1OC [Compound No. 34, N-(2-methoxybenzyl)-3-[6-(4-t-butylphenylsulfonylamino)-5-(2-methoxyphenoxy)-2-(2-pyrimidinyl)-4-pyrimidinyloxy]propionamide] |  | 0.39 µM | 0.22 µM
COc1ccccc1NC(=O)CCOc1nc(-c2ncccn2)nc(NS(=O)(=O)c2ccc(C(C)(C)C)cc2)c1Oc1ccccc1OC [Compound No. 48, N-(2-methoxyphenyl)-3-[6-(4-t-butylphenylsulfonylamino)-5-(2-methoxyphenoxy)-2-(2-pyrimidinyl)-4-pyrimidinyloxy]propionamide] |  | 0.16 µM | 0.00075 µM
COc1ccccc1Oc1c(NS(=O)(=O)c2ccc(C(C)(C)C)cc2)nc(-c2ncccn2)nc1OCCC(=O)Nc1ccccc1C(C)C [Compound No. 53, N-(2-isopropylphenyl)-3-[6-(4-t-butylphenylsulfonylamino)-5-(2-methoxyphenoxy)-2-(2-pyrimidinyl)-4-pyrimidinyloxy]propionamide] |  | 0.098 µM | 0.00082 µM
COc1ccccc1Oc1c(NS(=O)(=O)c2ccc(C(C)(C)C)cc2)nc(-c2ncccn2)nc1OCCC(=O)Nc1ccccn1 [Compound No. 92, N-(2-pyridyl)-3-[6-(4-t-butylphenylsulfonylamino)-5-(2-methoxyphenoxy)-2-(2-pyrimidinyl)-4-pyrimidinyloxy]-propionamide] |  | 0.0095 µM | 0.1 µM
N-(2-chlorophenethyl)-4-[6-(4-t-butylphenylsulfonylamino)-5-(2-methoxyphenoxy)-2-(2-pyrimidinyl)-4-pyrimidinyloxy]-butylamide [Compound No. 38] |  | 16.9 µM | 0.019 µM
